From the supplement of paper PMC10627819

Assays:
[1] = tested on: B. subtilis 168; experiment: fitness (endpoint OD595 vs no drug) (fraction); higher = more growth
In short: (§1)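 With the first reading as background, OD595 was measured every 30 min for 14 h in 384-well plates kept at 37 °C and inoculated at OD595 0.01. TSB, LB Lennox or CY was the medium. Fitness is the optical density at the transition into stationary phase divided by the robust mean of no-drug control wells, with a cap of 1.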

[2] = tested on: S. pneumoniae D39V; experiment: as above
In short: as §1

[3] = tested on: B. subtilis 168; experiment: Bliss interaction score (quartile over a dose matrix) (fitness difference); higher = more antagonism (negative = synergy)
In short: (§2)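 The Bliss score is observed minus expected fitness under the product model, reported as quartiles over technical, biological and donor/recipient replicates. Fitness is the OD595 at entry into stationary phase divided by the plate's robust no-drug mean and capped at 1. Single-drug fitness was inferred from combination data.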

[4] = tested on: S. aureus DSM 20231; experiment: as above
In short: as §2

[5] = tested on: S. aureus Newman; experiment: as above
In short: as §2

[6] = tested on: S. pneumoniae D39V; experiment: as above
In short: as §2
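Throughout, for Bliss interaction score (quartile over a dose matrix): first quartile when negative (synergy) and third quartile when positive (antagonism).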

C[C@H]1COc2c(N3CCN(C)CC3)c(F)cc3c(=O)c(C(=O)O)cn1c23 [Levofloxacin] + Cc1ncc([N+](=O)[O-])n1CCO [Metronidazole]
fitness, [1], one replicate
Settings | first compound 0.001 µg/mL | first compound 0.002 µg/mL | first compound 0.0039 µg/mL
partner 0.625 µg/mL | 0.946 | 0.911 | 0.852
partner 1.25 µg/mL | 0.96 | 0.85 | 0.845
partner 2.5 µg/mL | 0.965 | 0.929 | 0.855

Settings | fitness
[1], first compound 0.0312 µg/mL, partner 0.625 µg/mL | 0.0462
[1], first compound 0.0312 µg/mL, partner 1.25 µg/mL | 0.0567
[1], first compound 0.0312 µg/mL, partner 2.5 µg/mL | 0.0324
[1], first compound 0.0625 µg/mL, partner 0.625 µg/mL | 0.0491
[1], first compound 0.0625 µg/mL, partner 1.25 µg/mL | 0.0521
[1], first compound 0.0625 µg/mL, partner 2.5 µg/mL | 0.0541
[1], first compound 0.125 µg/mL, partner 0.625 µg/mL | 0.0404
[1], first compound 0.125 µg/mL, partner 1.25 µg/mL | 0.0466
[1], first compound 0.125 µg/mL, partner 2.5 µg/mL | 0.0398
[2], first compound 0.1725 µg/mL, partner 1.25 µg/mL | 0.985
[2], first compound 0.1725 µg/mL, partner 2.5 µg/mL | 0.993
[2], first compound 0.1725 µg/mL, partner 5 µg/mL | 0.976
[2], first compound 0.2 µg/mL, partner 1.073 µg/mL | 0.95
[2], first compound 0.2 µg/mL, partner 2.145 µg/mL | 0.91
[2], first compound 0.2 µg/mL, partner 4.29 µg/mL | 0.899
[2], first compound 0.345 µg/mL, partner 1.25 µg/mL | 0.903
[2], first compound 0.345 µg/mL, partner 2.5 µg/mL | 0.92
[2], first compound 0.345 µg/mL, partner 5 µg/mL | 0.931
[2], first compound 0.4 µg/mL, partner 1.073 µg/mL | 0.873
[2], first compound 0.4 µg/mL, partner 2.145 µg/mL | 0.85
[2], first compound 0.4 µg/mL, partner 4.29 µg/mL | 0.819
[2], first compound 0.69 µg/mL, partner 1.25 µg/mL | 0.7
[2], first compound 0.69 µg/mL, partner 2.5 µg/mL | 0.704
[2], first compound 0.69 µg/mL, partner 5 µg/mL | 0.686
[2], first compound 0.8 µg/mL, partner 1.073 µg/mL | 0.765
[2], first compound 0.8 µg/mL, partner 2.145 µg/mL | 0.765
[2], first compound 0.8 µg/mL, partner 4.29 µg/mL | 0.71

Settings | Bliss interaction score
[3] | 0.0195
[4] | -0.0575
[5] | -0.0661
[6] | 0.121

C[C@H]1COc2c(N3CCN(C)CC3)c(F)cc3c(=O)c(C(=O)O)cn1c23 [Levofloxacin] + Cc1onc(-c2ccccc2)c1C(=O)N[C@@H]1C(=O)N2[C@@H]1SC(C)(C)[C@@H]2C(=O)O [Oxacillin]
fitness, [1], one replicate
Settings | partner 0.0078 µg/mL | partner 0.0155 µg/mL | partner 0.031 µg/mL | partner 0.075 µg/mL | partner 0.15 µg/mL | partner 0.3 µg/mL
first compound 0.001 µg/mL | 0.942 | 0.965 | 0.932 | – | – | –
first compound 0.002 µg/mL | 0.898 | 0.936 | 0.876 | 0.476 | 0.0412 | 0.0517
first compound 0.0039 µg/mL | 0.832 | 0.849 | 0.741 | 0.416 | 0.038 | 0.0324
first compound 0.0078 µg/mL | – | – | – | 0.592 | 0.0582 | 0.0577

Settings | fitness
[1], first compound 0.0312 µg/mL, partner 0.002 µg/mL | 0.0448
[1], first compound 0.0312 µg/mL, partner 0.004 µg/mL | 0.0387
[1], first compound 0.0312 µg/mL, partner 0.008 µg/mL | 0.0483
[1], first compound 0.0625 µg/mL, partner 0.002 µg/mL | 0.0429
[1], first compound 0.0625 µg/mL, partner 0.004 µg/mL | 0.0548
[1], first compound 0.0625 µg/mL, partner 0.008 µg/mL | 0.0559
[1], first compound 0.125 µg/mL, partner 0.002 µg/mL | 0.0397
[1], first compound 0.125 µg/mL, partner 0.004 µg/mL | 0.0414
[1], first compound 0.125 µg/mL, partner 0.008 µg/mL | 0.0574
[2], first compound 0.1725 µg/mL, partner 0.01 µg/mL | 0.972
[2], first compound 0.1725 µg/mL, partner 0.02 µg/mL | 0.917
[2], first compound 0.2 µg/mL, partner 0.01 µg/mL | 0.928
[2], first compound 0.2 µg/mL, partner 0.02 µg/mL | 0.898
[2], first compound 0.2 µg/mL, partner 0.04 µg/mL | 0.495
[2], first compound 0.345 µg/mL, partner 0.01 µg/mL | 0.9
[2], first compound 0.345 µg/mL, partner 0.02 µg/mL | 0.894
[2], first compound 0.4 µg/mL, partner 0.01 µg/mL | 0.809
[2], first compound 0.4 µg/mL, partner 0.02 µg/mL | 0.785
[2], first compound 0.4 µg/mL, partner 0.04 µg/mL | 0.402
[2], first compound 0.69 µg/mL, partner 0.01 µg/mL | 0.704
[2], first compound 0.69 µg/mL, partner 0.02 µg/mL | 0.571
[2], first compound 0.8 µg/mL, partner 0.04 µg/mL | 0.24

Settings | Bliss interaction score
[3] | -0.0169
[4] | 0.0488
[5] | 0.0619
[6] | 0.11

CN(C)C(=O)C(CCN1CCC(O)(c2ccc(Cl)cc2)CC1)(c1ccccc1)c1ccccc1 [Loperamide] + CC1=C\[C@@H](O)CC(=O)Cc2nc(co2)C(=O)N2CCC=C2C(=O)O[C@H](C(C)C)[C@H](C)/C=C/C(=O)NC\C=C\1 [Virginiamycin M1]
Settings | fitness
[1], first compound 25 µg/mL, partner 0.0625 µg/mL | 0.809
[1], first compound 25 µg/mL, partner 0.125 µg/mL | 0.745
[1], first compound 25 µg/mL, partner 0.25 µg/mL | 0.755
[1], first compound 50 µg/mL, partner 0.0625 µg/mL | 0.0261
[1], first compound 50 µg/mL, partner 0.125 µg/mL | 0.0336
[1], first compound 50 µg/mL, partner 0.25 µg/mL | 0.0356
[1], first compound 100 µg/mL, partner 0.0625 µg/mL | 0.0228
[1], first compound 100 µg/mL, partner 0.125 µg/mL | 0.0378
[1], first compound 100 µg/mL, partner 0.25 µg/mL | 0.0328
[2], first compound 17.14 µg/mL, partner 0.5 µg/mL | ≥ 1
[2], first compound 17.14 µg/mL, partner 1 µg/mL | ≥ 1
[2], first compound 17.14 µg/mL, partner 2 µg/mL | ≥ 1
[2], first compound 20 µg/mL, partner 2 µg/mL | ≥ 1
[2], first compound 34.28 µg/mL, partner 0.5 µg/mL | ≥ 1
[2], first compound 34.28 µg/mL, partner 1 µg/mL | ≥ 1
[2], first compound 34.28 µg/mL, partner 2 µg/mL | ≥ 1
[2], first compound 40 µg/mL, partner 2 µg/mL | ≥ 1

fitness, [2], one replicate
Settings | partner 0.15 µg/mL | partner 0.3 µg/mL | partner 0.5 µg/mL | partner 1 µg/mL | partner 2 µg/mL
first compound 20 µg/mL | ≥ 1 | 0.999 | ≥ 1 | ≥ 1 | –
first compound 40 µg/mL | ≥ 1 | ≥ 1 | ≥ 1 | ≥ 1 | –
first compound 68.57 µg/mL | – | – | ≥ 1 | ≥ 1 | ≥ 1
first compound 80 µg/mL | ≥ 1 | ≥ 1 | 0.348 | 0.0702 | –

Settings | Bliss interaction score
[3] | -0.0999
[4] | -0.211
[5] | 0.0415
[6] | 0.0883

CN(C)C(=O)C(CCN1CCC(O)(c2ccc(Cl)cc2)CC1)(c1ccccc1)c1ccccc1 [Loperamide] + CCC(C)C1C(=O)NC(=C)C(=O)NC(C(=O)NC(CSCC(C(=O)N1)NC(=O)/C(=C/C)/NC(=O)C(C(C)CC)N)C(=O)NC2C(SCC(NC(=O)CNC(=O)C3CCCN3C2=O)C(=O)NC(CCCCN)C(=O)NC4C(SCC(NC(=O)CNC(=O)C(NC(=O)C(NC(=O)C(NC(=O)CNC4=O)C)CC(C)C)CCSC)C(=O)NC(CC(=O)N)C(=O)NC(CCSC)C(=O)NC(CCCCN)C(=O)NC5C(SCC6C(=O)NC(C(=O)NC(CSC(C(C(=O)N6)NC(=O)C(NC5=O)C)C)C(=O)NC(CO)C(=O)NC(C(C)CC)C(=O)NC(CC7=CN=CN7)C(=O)NC(C(C)C)C(=O)NC(=C)C(=O)NC(CCCCN)C(=O)O)CC8=CN=CN8)C)C)C)CC(C)C [Nisin]
fitness, one replicate, main component drawn
Settings | first compound 25 µg/mL | first compound 50 µg/mL | first compound 68.57 µg/mL | first compound 100 µg/mL
[1], partner 0.5 µg/mL | 0.435 | 0.0779 | – | 0.108
[1], partner 1 µg/mL | 0.11 | 0.0703 | – | 0.0347
[1], partner 1.25 µg/mL | 0.204 | 0.0476 | – | 0.0457
[1], partner 1.6 µg/mL | 0.1 | 0.0166 | – | 0.0155
[1], partner 2 µg/mL | 0.088 | 0.0708 | – | 0.0438
[1], partner 2.5 µg/mL | 0.0567 | 0.0575 | – | 0.0577
[1], partner 3.2 µg/mL | 0.0289 | 0.0291 | – | 0.0362
[1], partner 4 µg/mL | 0.0315 | 0.0232 | – | 0.0127
[1], partner 5 µg/mL | 0.0493 | 0.0332 | – | 0.0475
[1], partner 6.4 µg/mL | 0.035 | 0.0454 | – | 0.077
[1], partner 8 µg/mL | 0.0084 | 0.0257 | – | 0.0094
[1], partner 16 µg/mL | 0.0263 | 0.037 | – | 0.0142
[2], partner 1.6 µg/mL | – | – | 0.001 | –
[2], partner 3.2 µg/mL | – | – | 0 | –
[2], partner 6.4 µg/mL | – | – | 0 | –

[2], main component drawn
Settings | fitness
first compound 17.14 µg/mL, partner 1.6 µg/mL | 0.0272
first compound 17.14 µg/mL, partner 3.2 µg/mL | 0.0109
first compound 17.14 µg/mL, partner 6.4 µg/mL | 0.0062
first compound 20 µg/mL, partner 0.4275 µg/mL | 0.827
first compound 20 µg/mL, partner 1.71 µg/mL | 0.063
first compound 34.28 µg/mL, partner 1.6 µg/mL | 0.0162
first compound 34.28 µg/mL, partner 3.2 µg/mL | 0
first compound 34.28 µg/mL, partner 6.4 µg/mL | 0.0091
first compound 40 µg/mL, partner 0.4275 µg/mL | 0.145
first compound 40 µg/mL, partner 0.855 µg/mL | 0.0969
first compound 40 µg/mL, partner 1.71 µg/mL | 0.0997
first compound 80 µg/mL, partner 0.4275 µg/mL | 0.0928
first compound 80 µg/mL, partner 0.855 µg/mL | 0.073
first compound 80 µg/mL, partner 1.71 µg/mL | 0.102

main component drawn
Settings | Bliss interaction score
[3] | -0.126
[4] | -0.423
[5] | -0.076
[6] | -0.175
